Reference: the NIST ThermoML archive (doi:10.1021/je500239t)
“And” between values parts separate entries of the source, which are not always exact repeats. Identical values can stand only once. Numbers after ± are expanded uncertainties.

Settings: for mass density: Liquid, isochoric method; for surface tension liquid-gas: Ring tensiometer

CCCCCCn1cc[n+](C)c1.F[P-](F)(F)(F)(F)F [1-hexyl-3-methylimidazolium hexafluorophosphate]
Settings | mass density [kg/m3]
220.78 K, 20693 kPa | 1364.2 ± 1.8
221.31 K, 2190 kPa | 1355.99 ± 1.8
226.3 K, 10334 kPa | 1355.5 ± 1.8
226.34 K, 30167 kPa | 1363.64 ± 1.8
232.2 K, 39852 kPa | 1363.05 ± 1.8
232.44 K, 20355 kPa | 1354.89 ± 1.8
232.75 K, 1468.4 kPa | 1346.06 ± 1.8
238.32 K, 29843 kPa | 1354.3 ± 1.8
238.38 K, 10065 kPa | 1345.53 ± 1.8
239.11 K, 50924 kPa | 1362.36 ± 1.8
244.53 K, 39522 kPa | 1353.69 ± 1.8
244.58 K, 20078 kPa | 1345.49 ± 1.8
244.91 K, 1121.9 kPa | 1336.19 ± 1.8
250.82 K, 49360 kPa | 1353.07 ± 1.8
251.03 K, 10204 kPa | 1335.6 ± 1.8
251.05 K, 29930 kPa | 1344.61 ± 1.8
257.33 K, 19488 kPa | 1335.01 ± 1.8
257.74 K, 40140 kPa | 1344.21 ± 1.8
258.25 K, 1630.4 kPa | 1325.22 ± 1.8
264.3 K, 29775 kPa | 1334.34 ± 1.8
264.31 K, 10326 kPa | 1324.65 ± 1.8
264.31 K, 29966 kPa | 1334.29 ± 1.8
264.82 K, 50312 kPa | 1343.28 ± 1.8
271.12 K, 19945 kPa | 1324.01 ± 1.8
271.72 K, 40378 kPa | 1333.63 ± 1.8
272.25 K, 1996.3 kPa | 1314.31 ± 1.8
277.88 K, 100 kPa | 1308.85 ± 0.56
278.37 K, 29980 kPa | 1323.33 ± 1.8
278.39 K, 10230 kPa | 1313.74 ± 1.8
278.81 K, 49975 kPa | 1332.93 ± 1.8
283.3 K, 100 kPa | 1304.78 ± 0.56
285.6 K, 39832 kPa | 1322.66 ± 1.8
285.88 K, 20217 kPa | 1313.06 ± 1.8
285.98 K, 1730.8 kPa | 1302.58 ± 1.8
288.37 K, 100 kPa | 1300.82 ± 0.56
293.01 K, 100 kPa | 1296.84 ± 0.56
293.33 K, 11116 kPa | 1301.92 ± 1.8
293.38 K, 30030 kPa | 1312.37 ± 1.8
294.3 K, 49916 kPa | 1321.89 ± 1.8
298.16 K, 127.6 kPa | 1293.38 ± 1.8
298.21 K, 100 kPa | 1293.14 ± 0.56
300.72 K, 20089 kPa | 1301.27 ± 1.8
301.06 K, 39951 kPa | 1311.66 ± 1.8
301.51 K, 940.4 kPa | 1290.78 ± 1.8
303 K, 100 kPa | 1289.6 ± 0.55
308.05 K, 100 kPa | 1285.34 ± 0.55
308.93 K, 10526 kPa | 1290.11 ± 1.8
308.93 K, 30141 kPa | 1300.53 ± 1.8
309.51 K, 50444 kPa | 1310.89 ± 1.8
313.17 K, 100 kPa | 1280.96 ± 0.55
316.34 K, 18783 kPa | 1289.47 ± 1.8
317.93 K, 100 kPa | 1277.34 ± 0.55
318.19 K, 41900 kPa | 1299.68 ± 1.8
318.48 K, 1643.7 kPa | 1277.43 ± 1.8
323.16 K, 100 kPa | 1273.19 ± 0.55
325.52 K, 47639 kPa | 1299.1 ± 1.8
325.7 K, 29844 kPa | 1288.64 ± 1.8
325.86 K, 10002 kPa | 1276.79 ± 1.8
328.09 K, 100 kPa | 1269.64 ± 0.55
333.28 K, 100 kPa | 1265.48 ± 0.55
334.93 K, 20139 kPa | 1276.01 ± 1.8
336.11 K, 41946 kPa | 1287.71 ± 1.8
336.59 K, 1430 kPa | 1262.76 ± 1.8
338.63 K, 100 kPa | 1261.76 ± 0.55
343.3 K, 100 kPa | 1257.98 ± 0.55
344.61 K, 1230.6 kPa | 1256.88 ± 1.8
345.06 K, 10024 kPa | 1262.06 ± 1.8
345.06 K, 30866 kPa | 1275.14 ± 1.8
347.93 K, 50753 kPa | 1286.78 ± 1.8
348.55 K, 100 kPa | 1254.47 ± 0.55
353.15 K, 18882 kPa | 1261.36 ± 1.8
353.15 K, 40148 kPa | 1274.42 ± 1.8
353.16 K, 10034 kPa | 1256.16 ± 1.8
353.61 K, 100 kPa | 1250.75 ± 0.55
358.19 K, 100 kPa | 1247.22 ± 0.55
364.46 K, 100 kPa | 1242.36 ± 0.55

CCCCCCCCCCCCCC[P+](CCCCCC)(CCCCCC)CCCCCC.N#C[N-]C#N [tetradecyl(trihexyl)phosphonium dicyanamide]
Settings | mass density [kg/m3]
240.45 K, 9948.1 kPa | 936.26 ± 2.5
247.9 K, 20013 kPa | 935.78 ± 2.5
248.45 K, 1061.1 kPa | 928.34 ± 2.4
255.19 K, 9753 kPa | 927.91 ± 2.4
255.47 K, 29932 kPa | 935.43 ± 2.5
255.48 K, 30358 kPa | 935.75 ± 2.5
262.34 K, 100 kPa | 919.18 ± 2.4
263.19 K, 40368 kPa | 935.25 ± 2.5
263.31 K, 20048 kPa | 927.4 ± 2.4
265.01 K, 1331.4 kPa | 918.74 ± 2.4
268.5 K, 100 kPa | 915.58 ± 2.4
271.01 K, 49601 kPa | 934.43 ± 2.4
271.54 K, 9121.6 kPa | 918.33 ± 2.4
271.95 K, 29894 kPa | 926.34 ± 2.4
273.37 K, 100 kPa | 912.9 ± 2.3
278.2 K, 100 kPa | 910.1 ± 2.3
279.99 K, 39498 kPa | 925.84 ± 2.4
280.34 K, 20094 kPa | 917.77 ± 2.4
281.41 K, 1813.9 kPa | 908.67 ± 2.3
283.3 K, 100 kPa | 907.06 ± 2.3
288.09 K, 48847 kPa | 925.34 ± 2.4
288.37 K, 100 kPa | 904.29 ± 2.3
289.04 K, 30059 kPa | 917.24 ± 2.4
289.74 K, 10390 kPa | 908.18 ± 2.3
293.14 K, 100 kPa | 901.37 ± 2.3
297.73 K, 39781 kPa | 916.7 ± 2.4
298.14 K, 20028 kPa | 907.66 ± 2.3
298.15 K, 119.7 kPa | 898.63 ± 2.3
298.21 K, 100 kPa | 898.81 ± 2.3
298.4 K, 1119.7 kPa | 898.73 ± 2.3
303.08 K, 100 kPa | 895.87 ± 2.2
306.53 K, 28505 kPa | 907.16 ± 2.3
307.06 K, 9995.2 kPa | 898.22 ± 2.3
307.27 K, 49935 kPa | 916.12 ± 2.4
308.18 K, 100 kPa | 892.91 ± 2.2
313.09 K, 100 kPa | 890.2 ± 2.2
316.64 K, 19643 kPa | 897.65 ± 2.3
316.65 K, 39471 kPa | 906.55 ± 2.3
318.03 K, 100 kPa | 887.53 ± 2.2
318.37 K, 1160.7 kPa | 887.84 ± 2.2
323.32 K, 100 kPa | 884.69 ± 2.2
327.54 K, 49978 kPa | 905.9 ± 2.3
327.66 K, 10032 kPa | 887.3 ± 2.2
327.67 K, 30114 kPa | 897.01 ± 2.3
328.16 K, 100 kPa | 881.94 ± 2.2
332.96 K, 100 kPa | 879.42 ± 2.2
338.03 K, 100 kPa | 876.79 ± 2.2
338.23 K, 19830 kPa | 886.69 ± 2.2
338.63 K, 41032 kPa | 896.36 ± 2.3
339.22 K, 1500.6 kPa | 876.45 ± 2.2
342.86 K, 100 kPa | 873.89 ± 2.1
348.12 K, 100 kPa | 871.1 ± 2.1
348.37 K, 49973 kPa | 895.79 ± 2.2
349.27 K, 10043 kPa | 875.89 ± 2.2
349.28 K, 29863 kPa | 886.05 ± 2.2
353.28 K, 100 kPa | 868.29 ± 2.1
358 K, 100 kPa | 865.81 ± 2.1
364.53 K, 100 kPa | 862.18 ± 2.1

Settings | surface tension liquid-gas
283.57 K | 32.46 ± 0.73 mN/m
283.61 K | 32.69 ± 0.73 mN/m
288.08 K | 32.54 ± 0.73 mN/m
288.09 K | 31.93 ± 0.72 mN/m
293.35 K | 31.85 ± 0.71 mN/m
293.41 K | 32.02 ± 0.72 mN/m
298.2 K | 31.68 ± 0.71 mN/m
298.24 K | 31.82 ± 0.71 mN/m
303.15 K | 30.98 ± 0.7 mN/m
303.2 K | 31.32 ± 0.7 mN/m
308.16 K | 30.28 ± 0.68 mN/m
308.17 K | 30.84 ± 0.69 mN/m
313.21 K | 29.67 ± 0.67 mN/m
313.25 K | 30.4 ± 0.68 mN/m
318.29 K | 29.57 ± 0.67 mN/m
318.3 K | 30.08 ± 0.68 mN/m
323.33 K | 29.65 ± 0.67 mN/m
323.39 K | 29.41 ± 0.66 mN/m
328.05 K | 28.72 ± 0.65 mN/m
328.09 K | 29.18 ± 0.66 mN/m
333.58 K | 28.62 ± 0.65 mN/m and 28.77 ± 0.65 mN/m
338.55 K | 28.21 ± 0.64 mN/m
338.57 K | 28.35 ± 0.64 mN/m
343.55 K | 27.83 ± 0.63 mN/m
343.57 K | 27.93 ± 0.63 mN/m
348.56 K | 27.59 ± 0.63 mN/m
348.64 K | 27.56 ± 0.63 mN/m
353.46 K | 26.45 ± 0.6 mN/m
353.49 K | 27.11 ± 0.62 mN/m
358.44 K | 26.17 ± 0.62 mN/m
358.57 K | 26.7 ± 0.63 mN/m
365.15 K | 25.74 ± 0.59 mN/m
365.21 K | 26.14 ± 0.6 mN/m
